Measurements: patent publication US20260224555A1, “NEW PHENYLQUINOLONE COMPOUND HAVING ANTIBACTERIAL AND ANTI-CANCER FUNCTIONS AND PREPARATION THEREOF” (AlphaMol Science Ltd (Shanghai), priority 2022, published 2026)
Values after ≈ are worked out from the molar mass of the structure shown. Where two headings read alike, the source gives them in different places.

Legend:
[1] = tested on: methicillin-resistant Staphylococcus aureus; type: in vivo, Kunming mice; conditions: for reduction of necrosis area compared with the control group: 4 consecutive days, MRSA skin infection in mice
Procedure: Kunming mice (20±2 g) were anesthetized with chloral hydrate and shaved, and then 50 μL of 4×10^7 CFU/mL of methicillin-resistant Staphylococcus aureus was subcutaneously injected. One day later, 100 μL of 0.02, 2 and 200 mg/kg of Example 34 were subcutaneously injected respectively, and 100 μL of normal saline was injected for the control group. The drug was administered for consecutive 4 days, and mice were euthanized on the 5th day, and the area of abscess was measured.

S. aureus ATCC 43300 = experiment: In vitro antibacterial activity assay (MIC, broth dilution); type: cell-based; conditions: Staphylococcus aureus, ATCC43300
Text: (§1) The method used to indicate the activity of the compounds in this example is to record the minimum inhibitory concentration (MIC) of the compounds against bacteria. The specific experimental method is as follows:
(§2) 1. The bacterial liquid cultured from a single colony was taken, and diluted into autoclaved CAMHB broth in a ratio of 1:1000, and mixed well.
(§3) 2. The prepared drug solution was filtered through a sterile 0.22 µm syringe filter and placed in a sterile EP tube for later use.
(§4) 3. A 96-well plate was taken, and 20 µL of drug solution ([…]) was added to each well in the first column of the 96-well plate. Then, 180 µL of diluted bacterial liquid was added and mixed well (Perform 3 replicate rows for each drug).
(§5) The same process was performed for the hydrochloride drug.
(§6) 4. 100 μL of diluted bacterial liquid was added to each well in the remaining 11 columns of the 96-well plate. Drugs are the same as above.
(§7) 5. Serial dilution: 100 μL of liquid was taken from the first column to the second column, mixed well, then 100 μL of liquid was taken from the second column to the third column, mixed well, and so on, sequentially diluting down to the last column (column 12). After mixing column 12 well, 100 μL of liquid thereof was discarded. The drug concentration in each well was decreased by two-fold serially (the concentration in the first well is 40 μg/mL).
(§8) 6. Blank CAMHB broth without added bacteria liquid was added to 3 blank wells in the 96-well plate, as negative control.
(§9) 7. The diluted bacterial liquid was added to 3 blank wells in the 96-well plate, as positive control.
(§10) 8. Incubated at 37° C. for 16 hours.
(§11) 9. Results reading: the minimum inhibitory concentration is the minimum drug concentration at which no bacterial growth is visible to the naked eye and without turbidity.

E. coli ATCC 25922 = experiment: as above; type: cell-based; conditions: Escherichia coli, ATCC25922
Text: as §1, §2, §3, §4, §5, §6, §7, §8, §9, §10, §11

Hela = experiment: In vitro anticancer activity test (MTT cell proliferation); type: cell-based; conditions: Homo sapiens, average proliferation inhibition rate at the dosage of 40 μM, read-out: Hela Average inhibition rate %
Procedure: The anticancer activity of the compounds was tested using an in vitro cancer cell tests. The specific test method is as follows:
1. Cell recovery and culture method: the cryovial was taken out from the liquid nitrogen container firstly, soaked directly in 37° C. warm water, and shaked from time to time to let it thaw as soon as possible. Then, the cryovial was transferred to a clean bench, and the lid was open. The cell suspension was taken into a centrifuge tube using a rubber-tipped dropper and more than 10 times the culture medium was added, mixed well, and centrifuged at 50 g for 5 minutes. Then, the supernatant was discarded, complete culture medium containing 10% fetal bovine serum was added to resuspend the cells, the cells was counted, the cell density was adjusted, and then inoculated into a culture bottle. The culture bottle was placed in a cell culture incubator at 5% CO2 and 37° C. The complete culture medium was replaced once the next day and the culture was continued.
2. Cell passaging method: adherent cells in the logarithmic growth phase were placed in a clean bench, the original culture medium was discarded, and washed three times with 1×PBS. An appropriate amount of 0.25% trypsin digestion solution was added to moisten the cells, and then the trypsin solution was aspirated. The cells were placed in a cell culture incubator at 5% CO2 and 37° C. for digestion for a suitable time, and observed under a microscope. When 90% of the cells become round, the cells were moved immediately to the clean bench and complete culture medium was added to terminate digestion. Then, the cells were dislodged by pipetting up and down with a rubber-tipped dropper to single cells. The cells were counted, and the cell density was adjusted. The cells were inoculated into a suitable culture bottle or dish, added enough complete culture medium, and placed in a cell culture incubator at 5% CO2 and 37° C. for static culture.
For suspension cells in the logarithmic phase, the original culture medium was directly centrifuged at 50 g for 5 minutes, the supernatant was discarded, and the cells were washed once with PBS and centrifuged. After discarding the supernatant, the complete culture medium was added and the cells were dispersed using a rubber-tipped dropper. The cells are counted, and the cell density was adjusted. The cells were inoculated into appropriate culture bottles or culture dishes, and sufficient complete culture medium was added, and the cells were cultured in a cell culture incubator at 5% CO2 and 37° C.
3. Cell proliferation assay: cells in good state in logarithmic phase were taken and appropriate amount of the cells was inoculated into 96-well plates according to the cell passage treatment method, with each well containing 180 μL complete medium. After the cells growth was recovered and the number of cells in each well is 5000±500, a drug was added for treatment.
After drug treatment during the experimental time, MTT solution with a final concentration of 0.5 mg/mL was added to each well, and placed in a cell culture incubator at 5% CO2 and 37° C. to allow a fully reaction of MTT with cells. After 4 hours, the solution in the 96-well plate was discarded, 100 µL of DMSO was added, and shaked to dissolve the formazan precipitated at the bottom of the plate, and the absorbance value of samples was detected at a wavelength of 570 nm using a microplate reader. Calculation method of cell viability rate:
Table 4 lists some compounds that have inhibitory effects against both of bacteria and cancer cells. In the table, the inhibitory effects against cancer cells are shown: the average proliferation inhibition rate (%) against cancer cells at the dosage of 40 μM.

[2] = Table 3, read-out: MIC S. aureus ATCC 43300
[3] = Table 3, read-out: MIC E. coli ATCC 25922
[4] = Table 4, read-out: S. aureus ATCC 43300 MIC
[5] = Table 4, read-out: E. coli ATCC 25922 MIC

Row | Structure (SMILES) | MIC (S. aureus ATCC 43300; [2]) | MIC (E. coli ATCC 25922; [3]) | also measured
1 | O=C(O)c1cn(C2CC2)c2cc(-c3ccc(S(=O)(=O)NCCCCCCO)cc3)c(F)cc2c1=O [Example 29, 1-cyclopropyl-6-fluoro-7-(4-(N-(6-hydroxyhexyl)sulfamoyl)phenyl)-4-oxo-1,4-dihydroquinolin-3-carboxylic acid] |  |  | reduction of necrosis area compared with the control group ([1]; 0.02 mg/kg subcutaneous): 78.09%; reduction of necrosis area compared with the control group ([1]; 2 mg/kg subcutaneous): 81.21%; antibacterial effect in skin infection model ([1]; (corresponding to 0.02 mg/kg, 200 mg/kg)): good antibacterial effect; observation at the subcutaneous administration site ([1]; mouse, in vivo, sc, 200 mg/kg): certain bleeding symptom in body surface appeared at the subcutaneous administration site
2 | COc1cc(-c2c(F)cc3c(=O)c(C(=O)O)cn(C4CC4)c3c2OC)ccc1NC(C)=O [Example 66] | 0.1 to 1 µg/mL (≈ 0.227 to 2.27 µM) | 0.1 to 1 µg/mL (≈ 0.227 to 2.27 µM) | 
3 | CCn1cc(C(=O)O)c(=O)c2cc(OC)c(-c3ccc(N)nc3)c(C)c21 [Example 74] | 0.1 to 1 µg/mL (≈ 0.283 to 2.83 µM) | 0.1 to 1 µg/mL (≈ 0.283 to 2.83 µM) | 
4 | COc1c(-c2ncncn2)c(F)cc2c(=O)c(C(=O)O)cn(C3CC3)c12 [Example 77] | 0.1 to 1 µg/mL (≈ 0.281 to 2.81 µM) | 0.1 to 1 µg/mL (≈ 0.281 to 2.81 µM) | 
5 | Nc1cnc(-c2cc3c(cc2F)c(=O)c(C(=O)O)cn3C2CC2)nc1 [Example 83] | 0.1 to 1 µg/mL (≈ 0.294 to 2.94 µM) | 0.1 to 1 µg/mL (≈ 0.294 to 2.94 µM) | 

Now from value to compound, other results behind:

Row | MIC (S. aureus ATCC 43300; [2]) | MIC (E. coli ATCC 25922; [3]) | Structure (SMILES) | also measured
6 | 0.1 to 1 µg/mL | 0.1 to 1 µg/mL | Nc1cc(-c2nc3c(cc2F)c(=O)c(C(=O)O)cn3C2CC2)ccn1.O=CO [Example 56] | 
7 | 0.1 to 1 µg/mL (≈ 0.23 to 2.3 µM) | 0.1 to 1 µg/mL (≈ 0.23 to 2.3 µM) | O=C(O)c1cn(C2CC2)c2cc(-c3ccnc(NC(=O)C(F)(F)F)c3)c(F)cc2c1=O [Example 57] | 
8 | 0.1 to 1 µg/mL (≈ 0.25 to 2.5 µM) | 0.1 to 1 µg/mL (≈ 0.25 to 2.5 µM) | CS(=N)(=O)c1ccc(-c2cc3c(cc2F)c(=O)c(C(=O)O)cn3C2CC2)cc1 (stereo not drawn) [Example 64] | 
9 | ≤ 0.1 µg/mL | 0.1 to 1 µg/mL (≈ 0.199 to 1.99 µM) | CCCCCNS(=O)(=O)c1ccc(-c2c(F)cc3c(=O)c(C(=O)O)cn(C4CC4)c3c2OC)cc1 [Example 80] | inhibition at 40 µM (Hela): ≥ 50%; MIC (S. aureus ATCC 43300; [4]): ≤ 1 µg/mL; MIC (E. coli ATCC 25922; [5]): ≤ 1 µg/mL
10 | ≤ 0.1 µg/mL | 0.1 to 1 µg/mL (≈ 0.224 to 2.24 µM) | COc1c(-c2ccc([S+]([O-])CCO)cc2)c(F)cc2c(=O)c(C(=O)O)cn(C3CC3)c12 (stereo not drawn) [Example 86] | inhibition at 40 µM (Hela): ≥ 20%; MIC (S. aureus ATCC 43300; [4]): ≤ 1 µg/mL; MIC (E. coli ATCC 25922; [5]): ≤ 1 µg/mL
11 | ≤ 0.1 µg/mL | 0.1 to 1 µg/mL (≈ 0.208 to 2.08 µM) | O=C(O)c1cn(C2CC2)c2c(Cl)c(-c3ccc(S(=O)(=O)NCCO)cc3)c(F)cc2c1=O [Example 89] | inhibition at 40 µM (Hela): ≥ 20%; MIC (S. aureus ATCC 43300; [4]): ≤ 1 µg/mL; MIC (E. coli ATCC 25922; [5]): ≤ 1 µg/mL
